Assay results as given in US20220041578A1, “ISOINDOLINE COMPOUND, AND PREPARATION METHOD, PHARMACEUTICAL COMPOSITION, AND APPLICATION OF ISOINDOLINE COMPOUND” (Shanghai Institute of Meteria Medica, Chinese Academy of …, priority 2018, published 2022).
Read-outs that look alike come from different tables or passages of the source.

What was measured:
Type in all cases: cell-based
IL-2 = IL-2 expression change in anti-human CD3 stimulated PBMC (ELISA); settings: compound 10 nM, anti-human CD3 10 ug/ml, 24 hours
Procedure: (§1) All operations of this experiment were carried out according to the conventional experimental process of this kind of experiment at present. Peripheral blood from healthy volunteers was collected by routine standard procedure and cultured in 1640 medium (+10% FBS) to obtain PBMC. After recovery, PBMC was centrifuged and resuspended in serum-free medium. After counting, adjusted the density to be 6.25×10^5/ml; then inoculated 160 ul to a 96-well plate, 2 holes each, 1×10^5/well; 20 ul 10× compound and DMSO were added, and incubated for 1 hour in an incubator; then 20 ul 10× anti-human CD3 was added resulting the final concentration of 10 ug/ml and incubated in an incubator for 24 hours. Centrifuged the cell plate at 1500 rpm and aspirated 50 ul supernatant according to the ELISA operation. After operating according to the kit, a microplate reader was used to read at 450 nm. The concentration of compound was 10 nM, and DMSO was added as control group. Materials used in this experiment: 96 well plate (Corning, #3599), ELISA kit (Thermo), LPS (Sigma, USA).

IFNγ = IFNγ expression change in anti-human CD3 stimulated PBMC (ELISA); settings: compound 10 nM, anti-human CD3 10 ug/ml, 24 hours
Procedure: as §1, with “USA). It was found from the test results of the following table that the compounds of the examples of the present invention could be used to regulate the expression of IFNγ.” for “USA).”

TNF-α = TNF-α activity inhibition experiment in LPS-stimulated PBMC (ELISA); settings: Homo sapiens, compound 10 nM, LPS 1 ug/ml, 72 hours, read-out: Inhibition rate of TNF-a (%)
Procedure: as §1, with “plate,” for “plate, 2 holes each,”, “ul 10 XLPS” for “ul 10× anti-human CD3”, “of 1” for “of 10”, “for 72” for “for 24”

MV-4-11 cells = assay: Effect of the compound on proliferation of MV-4-11 cells (MTS); settings: Homo sapiens
Procedure: MV-4-11 cells were cultured with IMDM plus 10% fetal bovine serum and collected. The cell concentration was diluted according to the action time of 7 days, and 180 ul of cell suspension was added to each well of a 96-well cell plate to make the cell count to be 2000. 20 ul of DMSO with a final concentration of 0.2% was added to the control cell wells. The compound was diluted 5-fold with the 10 mM stock solution, and 20 ul was also added to the compound cell wells (the final concentration of DMSO was 0.2%). The cells were placed in a 37° C., 5% CO2 incubator and incubated for 7 days. After preparing the reaction solution according to the MTS kit (Promega, G5430), 20 μL was added to each well, incubated in a 37° C., 5% CO2 incubator for 3-4 h. Read the 490 nm absorbance value with a microtiter plate, and used the 690 nm absorbance value as the background value and OD490-OD690 as the final initial data. The formula for calculating the inhibition rate of the compound was: inhibition rate=(OD DMSO-ODcompound)/(ODDMSO-Oblank)×100%. The compound's proliferation inhibition IC50 was fitted by Graph Pad Prism 5.0. The experiment was repeated three times, and three parallel experiments were used to calculate the average and standard deviation each time. The cell viability test results were shown in Table 3: A means cell viability IC50<1 μM, B means cell viability 1 μM≤IC50≤20 μM, C means cell viability IC50>20 μM.

MM.1S cells = assay: Effect of the compound on the proliferation of MM.1S cells (MTS); settings: Homo sapiens, MM1.S, 168 h, 7 days, read-out: Cell inhibitory activity (IC50)
In short: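 In 1640 medium + 10% FBS, 20,000 cells per well were treated with 5-fold compound dilutions at 0.2% DMSO for 7 days at 37° C., 5% CO2. MTS was read after 3–4 h as OD490−OD690, inhibition was calculated against DMSO and blank wells, and IC50 was fitted; three independent experiments were run.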

Mino cells = assay: Effect of the compound on the proliferation of Mino cells (MTS); settings: Homo sapiens, 72 h, 3 days, read-out: Inhibitory activity (IC50)
Procedure: Mino cells were cultured with 1640 plus […] and collected. The cell concentration was diluted according to the action time of 3 days, and 90 ul cell suspension was added to each well of the 96-well cell plate to make the cell count to be 8000. 10 ul of DMSO with a final concentration of 0.2% was added to the control cell wells. The compound was diluted 5-fold with the 10 mM stock solution, and 10 ul was also added to the compound cell wells (the final concentration of DMSO was 0.2%). The cells were placed in a 37° C., […] incubator and incubated for 3 days. After preparing the reaction solution according to the MTS kit (Promega, G5430), 20 μL was added to each well, incubated in a 37° C., 5% CO2 incubator for 3-4 h. Read the 490 nm absorbance value with a microtiter plate, and used the 690 nm absorbance value as the background value and OD490-OD690 as the final initial data. The formula for calculating the inhibition rate of the compound was: inhibition rate=(OD DMSO-ODcompound)/(ODDMSO-Oblank)×100%. The compound's proliferation inhibition IC50 was fitted by Graph Pad Prism 5.0. The experiment was repeated three times, and three parallel experiments were used to calculate the average and standard deviation each time.

[1] = tested on: triple negative breast cancer cells MDA-MB-231; assay: Proliferation of other tumor cells, MDA-MB-231 (WST-8); settings: Homo sapiens, 96 h, MDA-MB-231 cells, 4 days, read-out: Inhibitory activity on proliferation, MDA-MB-231 (IC50)
Procedure: (§2) The human triple negative breast cancer cells MDA-MB-468 and MDA-MB-231 used in this experiment were purchased from the Shanghai Cell Bank, in which L-15 medium added with 10% fetal bovine serum (FBS) and 1% double antibody was used. At 37° C., MDA-MB-468 and MDA-MB-231 cells were cultured in an incubator without CO2. Colorectal cancer cells HCT-116 were cultured in McCOY's 5A medium with 1% double antibody and 10% fetal bovine serum (FBS); prostate cancer cells DU145 were cultured in MEM medium with 1% double antibody and 10% fetal bovine serum (FBS); prostate cancer cells PC-3 were cultured in F-12 K medium with 1% double antibody and 10% fetal bovine serum (FBS); grew at 37° C., 5% CO2.
(§3) In the cell activity test experiment, 90 μL cell suspension with appropriate concentration was added to a 96-well cell culture plate according to the cell growth, each compound to be tested was gradient diluted with the corresponding medium, 10 μL diluted compound was added to 90 μL cells, and then incubated at 37° C. for 4 days. Cell proliferation was analyzed by WST-8, which could be reduced by lactate dehydrogenase in the cells to a yellow formazan. 10 μL of WST-8 reagent (DOJINDO) was added to the cells and reacted for more than 1 hour at 37° C., DMSO-treated cells were used as […]. The absorption value of 490 nm was read by enzyme-labeled plate, and the absorption value of 690 nm was taken as the background value, and OD490-OD690 was taken as the final original data, and the data was processed by GraphPad Prism6 software. The formula for calculating the inhibition rate of the compound was: inhibition rate=(ODDMSO−ODcompound)/(ODDMSO−Oblank)×100%. The compound's proliferation inhibition IC50 was fitted by Graph Pad Prism 5.0. The experiment was repeated three times, and three parallel experiments were used to calculate the average and standard deviation each time. The cell viability test results were shown in Table 4: A means cell viability IC50<1 μM, B means cell viability 1 μM≤IC50≤20 μM, C means cell viability IC50>20 μM, NT means not tested.

[2] = tested on: prostate cancer cells DU145; assay: Proliferation of other tumor cells, DU145 (WST-8); settings: Homo sapiens, DU-145, 96 h, 4 days, read-out: Inhibitory activity on proliferation, DU145 (IC50)
Procedure: as §2, §3

[3] = tested on: Colorectal cancer cells HCT-116; assay: Proliferation of other tumor cells, HCT-116 (WST-8); settings: Homo sapiens, 96 h, HCT-116 cells, 4 days, read-out: Inhibitory activity on proliferation, HCT-116 (IC50)
Procedure: as §2, §3

[4] = tested on: prostate cancer cells PC-3; assay: Proliferation of other tumor cells, PC-3 (WST-8); settings: Homo sapiens, 96 h, PC-3 cells, 4 days, read-out: Inhibitory activity on proliferation, PC-3 (IC50)
Procedure: as §2, §3

[5] = MV4-11, 168 h, 7 days, MTS, read-out: Inhibitory activity (IC50)

| SMILES | IC50 (MV-4-11 cells; [5]) [µM] | IC50 (MM.1S cells) [µM] | IC50 (MV-4-11 cells; MV4-11, read-out: cytostatic activity (IC50) on MV-4-11 cells) [µM] | IC50 [1] [µM] | IC50 [2] [µM] | IC50 [3] [µM] | IC50 [4] [µM] | Increase multiple of IL-2 Expression (IL-2) | Increase multiple of IFNγ expression (IFNγ) | inhibition at 0.01 µM (TNF-α) [%] | IC50 (Mino cells) [µM] |
| --- | --- | --- | --- | --- | --- | --- | --- | --- | --- | --- | --- |
| O=C1CCC(N2Cc3c(OCc4cn(-c5ccc(OC(F)(F)F)cc5)nn4)cccc3C2=O)C(=O)N1 (stereo not shown) [CCC-135 (compound 17)] |  |  |  |  |  |  |  | >3 | >1.5 | > 50 |  |
| Cc1nc2cccc(N)c2c(=O)n1C1CCC(=O)NC1=O (stereo not shown) [CC-122, reference compound] | > 20 | < 0.15 | > 20 |  |  |  |  |  |  |  | 0.15 to 20 |
| O=C1CCC(N2Cc3c(OCc4cn(-c5cccc(Cl)c5Cl)nn4)cccc3C2=O)C(=O)N1 (stereo not shown) [Compound 18, 3-(4-((1-(2,3-dichlorophenyl)-1H-1,2,3-triazol-4-)methoxy)-1-oxoisoindolin-2-) piperidine-2,6-dione] | < 1 | < 0.15 |  |  |  |  |  |  |  |  | < 0.15 |
| O=C1CCC(N2Cc3c(OCc4cn(-c5cccc(OC(F)(F)F)c5)nn4)cccc3C2=O)C(=O)N1 (stereo not shown) [Compound 20, 3-(1-oxo-4-((1-(3-(trifluoromethoxy)phenyl)-1H-1,2,3-triazol-4-)methoxy)isoindolin-2-) piperidine-2,6-dione] | 1 to 20 | < 0.15 |  |  |  |  |  |  |  |  | < 0.15 |

The next lines start with results.

| IC50 (MV-4-11 cells; [5]) [µM] | IC50 (MM.1S cells) [µM] | IC50 (MV-4-11 cells; MV4-11, read-out: cytostatic activity (IC50) on MV-4-11 cells) [µM] | IC50 [1] [µM] | IC50 [2] [µM] | IC50 [3] [µM] | IC50 [4] [µM] | SMILES | Increase multiple of IL-2 Expression (IL-2) | Increase multiple of IFNγ expression (IFNγ) | inhibition at 0.01 µM (TNF-α) [%] | IC50 (Mino cells) [µM] |
| --- | --- | --- | --- | --- | --- | --- | --- | --- | --- | --- | --- |
| 1 to 20 | 0.15 to 20 |  |  |  |  |  | O=C1CCC(N2Cc3c(OC[C@H]4CCN(c5ccc(OC(F)(F)F)cc5)C4)cccc3C2=O)C(=O)N1 (stereo partly drawn) [Compound 71, 3-(1-oxo-4-(((S)-1-(4-(trifluoromethoxy)phenyl)pyrrolin-3-)methoxy)isoindolin-2-) piperidine-2,6-dione] |  |  |  | 0.15 to 20 |
|  | < 0.15 |  | 1 to 20 | 1 to 20 | 1 to 20 | 1 to 20 | O=C1CCC(N2Cc3c(OCc4cn(-c5ccc(OC6CCOCC6)cc5)nn4)cccc3C2=O)C(=O)N1 (stereo not shown) [Compound 30, 3-(1-oxo-4-((1-(4-((2H-tetrahydropyran-4-)oxy)phenyl)-1H-1,2,3-triazol-4-)methoxy)isoindolin-2-)piperidine-2,6-dione] |  |  |  | < 0.15 |
|  | < 0.15 |  | > 20 | 1 to 20 | 1 to 20 | 1 to 20 | O=C1CCC(N2Cc3c(OCc4cnc(-c5ccc(OC(F)(F)F)cc5)o4)cccc3C2=O)C(=O)N1 (stereo not shown) [Compound 45, 3-(1-oxo-4-((2-(4-trifluoromethoxyphenyl)oxazol-5-)methoxy)isoindolin-2-) piperidine-2,6-dione] |  |  |  | < 0.15 |
